Experimental findings from publication PMC11396667, “Design, Synthesis, and Anticancer and Antibacterial Activities of Quinoline-5-Sulfonamides” (Molecules, 2024) are described below.

What is called MBC is the smallest concentration meeting the test's criterion for killing. A higher MBC goes with weaker bactericidal potency. The term MIC denotes the smallest concentration in the dilution series that meets the test's criterion for growth inhibition. The IC50 is the concentration that gives 50% inhibition. Low values mean higher potency, high ones lower potency.

SMILES strings stand for the structures. Converted amounts (≈) assume the structure as drawn.

Holding throughout (type): cell-based
Test [1] concerns methicillin-resistant S. aureus SA 630. Put plainly: MBC, agar aliquot subculture method, MRSA2. The settings on record: Staphylococcus aureus; 99.9% decrease in CFU, 24 h, 37 °C. An excerpt: (§1) The activities of the individual derivatives were expressed as minimum inhibitory concentrations (MICs) and minimum bactericidal concentrations (MBCs) and are shown in Table 3 together with the values of the antibiotics used as standards for comparison. […] MBC values of bactericidal compounds are indicated in bold in Table 3.
(§2) For the above-mentioned strains/isolates, the agar aliquot subculture method was used as a test for bactericidal agents. After the MIC value determination, the inoculum was transferred to CaMH (Oxoid) for staphylococci, and BHI (Oxoid) for enterococci medium using a multipoint inoculator. The plates were incubated in a thermostat at 37 °C for 24 h. The lowest concentration of test compound at which ≤5 colonies were obtained was then evaluated as MBC, corresponding to a 99.9% decrease in CFU relative to the original inoculum.

The test system of test [2] is vancomycin-resistant E. faecalis VRE 368. The test is described as follows: MIC, microtitration broth method, VRE2. The settings on record: Enterococcus faecalis, 24 h, 37 °C, BHI broth. From the text: (§3) Since there is a general decrease in immunity during the treatment of oncological patients, i.e., patients are more susceptible to infectious diseases, it is advantageous if anticancer agents show antimicrobial properties at the same time. Therefore, the effects of the compounds were also investigated against Gram-positive bacteria. For this purpose, the susceptible collection strains of aerobic Staphylococcus aureus ATCC 29213 and facultatively aerobic Enterococcus faecalis ATCC 29212 and resistant clinical isolates of methicillin-resistant S. aureus (MRSA) SA 3202, SA 630 carrying the mecA gene, and vancomycin-resistant isolates of E. faecalis (VRE) 342B, 368, and 725B carrying the vanA gene were selected. Thus, the selection of the studied bacterial strains was adopted following the CLSI ([…]) international reference methodologies.
(§4) The in vitro antibacterial activity of the synthesized compounds was evaluated against representatives of multidrug-resistant bacteria, […] clinical isolates of methicillin-resistant S. aureus: clinical isolates of human origin, MRSA SA 3202, and MRSA SA 630 (National Institute of Public Health, Prague, Czech Republic), carrying the mecA gene. These two clinical isolates were classified as vancomycin-susceptible (but with a higher MIC of vancomycin equal to 2 μg/mL (VA2-MRSA). Vancomycin- and methicillin-susceptible S. aureus ATCC 29213 and vancomycin-susceptible Enterococcus faecalis ATCC 29212, obtained from the American Type Culture Collection, were used as the reference and quality control strains. Three vanA gene-carrying vancomycin-resistant isolates of E. faecalis (VRE 342B, VRE 368, VRE 725B) (Department of Infectious Diseases and Microbiology, Faculty of Veterinary Medicine, University of Veterinary Sciences Brno, Czech Republic) were provided by Oravcova et al..
(§5) The minimum inhibitory concentrations (MICs) were evaluated by the microtitration broth method according to the CLSI, with some modifications. The compounds were dissolved in DMSO (Sigma, St. Louis, MO, USA) to obtain a concentration of […] and diluted in a microtitration plate in an appropriate medium, i.e., Cation-Adjusted Mueller–Hinton Broth (CaMH, Oxoid, Basingstoke, UK) for staphylococci, and Brain Heart Infusion Broth (BHI, Oxoid) for enterococci to reach the final concentration of 256–0.125 µg/mL. Microtiter plates were inoculated with test microorganisms so that the final concentration of bacterial cells was 10^5. Ampicillin, oxacillin, and ciprofloxacin (Sigma) were used as reference drugs. A drug-free control and a sterility control were included. The plates were incubated for 24 h at 37 °C for staphylococci and enterococci. […] The experiments were repeated three times.

Test [3] has as its system C-32 (human amelanotic melanoma) cells. Put plainly: WST-1 cell viability assay, C-32. Conditions: Homo sapiens; WST-1, 72 h exposure, ± SD, n = 6. The procedure: (§6) The synthesized compounds were tested using three cancer cell lines—human amelanotic melanoma (C-32), human breast adenocarcinoma (MDA-MB-231), and human lung adenocarcinoma (A549)—and, for comparison, normal human dermal fibroblasts (HFF-1). The WST-1 (water-soluble tetrazole salt) assay was used to evaluate the effect of the synthesized compounds on the viability of cultured cells.
(§7) Compounds were evaluated for their antiproliferative activity using three cultured cell lines: C-32 (human amelanotic melanoma, ATCC, Manassas, VA, USA), A549 (human lung adenocarcinoma, ATCC, Manassas, VA, USA), MDA-MB-231 (human breast adenocarcinoma derived from metastatic site: pleural effusion, ATCC, Manassas, VA, USA), together with HFF-1 (normal human dermal fibroblasts, ATCC, Manassas, VA, USA). The cultured cells were kept at 37 °C and 5% CO2.
(§8) Cells were seeded in 96-well plates at 5000/well in 100 μL of medium. After 24 h of incubation, the medium was replaced with a new one with the addition of the test substance. After 72 h, the following tests were performed: with crystal violet (determination of the number of adherent cells in the culture), the WST-1 test (determination of the relative number of living cells and their metabolic activity), and the LDH test (determination of the relative number of dead cells in cultures—cytotoxicity of the tested substance).
(§9) WST-1 test: The WST-1 test (Roche Diagnostics, Mannheim, Germany) allows one to determine the relative number of cells in cultures. Absorbance is directly proportional to the number of cells and their metabolic activity. The absorbance measurement is performed at λ = 450 nm (reference wave 600 nm).
Background: Tetrazolium dyes change colour on reduction, which living cells bring about.

For test [4], the system named is vancomycin-resistant E. faecalis VRE 725B. Put plainly: MIC, microtitration broth method, VRE3. The settings on record: Enterococcus faecalis, 24 h, 37 °C, BHI broth.
Excerpt: as §3, §4, §5

In test [5] the test system is Staphylococcus aureus ATCC 29213. Put plainly: MIC, microtitration broth method, SA. The settings on record: ATCC29213, 24 h, 37 °C, CaMH broth.
Excerpt: as §3, §4, §5

Test [6] has as its system methicillin-resistant S. aureus SA 630. Put plainly: MIC, microtitration broth method, MRSA2. Conditions: Staphylococcus aureus; 24 h, 37 °C, CaMH broth.
Excerpt: as §3, §4, §5

The test system of test [7] is Enterococcus faecalis ATCC 29212. Put plainly: MBC, agar aliquot subculture method, EF. Conditions: ATCC29212, 99.9% decrease in CFU, 24 h, 37 °C.
Excerpt: as §1, §2

In test [8] the test system is Staphylococcus aureus ATCC 29213. The test is described as follows: MBC, agar aliquot subculture method, SA. The settings on record: ATCC29213, 99.9% decrease in CFU, 24 h, 37 °C.
Excerpt: as §1, §2

The test system of test [9] is Enterococcus faecalis ATCC 29212. The test is described as follows: MIC, microtitration broth method, EF. The settings on record: ATCC29212, 24 h, 37 °C, BHI broth.
Excerpt: as §3, §4, §5

Test [10] relates to methicillin-resistant S. aureus SA 3202. Put plainly: MIC, microtitration broth method, MRSA1. The settings on record: Staphylococcus aureus; 24 h, 37 °C, CaMH broth.
Excerpt: as §3, §4, §5

The test system is the same in test [11]. The test is described as follows: MBC, agar aliquot subculture method, MRSA1. The settings on record: Staphylococcus aureus; 99.9% decrease in CFU, 24 h, 37 °C.
Excerpt: as §1, §2

Test [12] concerns A549 (human lung adenocarcinoma) cells. Put plainly: WST-1 cell viability assay, A549. The settings on record: Homo sapiens, A549; WST-1, 72 h exposure, ± SD, n = 6. How it is done: as §6, §7, §8, §9

For `C#CCNS(=O)(=O)c1ccc(O)c2ncccc12` [3a, 8-Hydroxy-N-(prop-2-yn-1-yl)quinoline-5-sulfonamide], the MBC in test [1] was 244 µM (≈ 64 µg/mL); in test [7] it was over 977 µM; in test [8] it was 122 µM (≈ 32 µg/mL); in test [11], 122 µM (≈ 32 µg/mL). The MIC was 977 µM (≈ 256 µg/mL) in [2]; 977 µM (≈ 256 µg/mL) in [4]; 122 µM (≈ 32 µg/mL) in test [5]; 244 µM (≈ 64 µg/mL) in test [6]; 977 µM (≈ 256 µg/mL) in test [9]; 122 µM (≈ 32 µg/mL) in [10]. The IC50 in test [3] was determined as 19.8 ± 1.1 µM; in [12], 23.1 ± 0.7 µM.

For `C#CC(C)(C)NS(=O)(=O)c1ccc(O)c2ncccc12` [3b, 8-Hydroxy-N-(1,1-dimethylprop-2-yn-1-yl)quinoline-5-sulfonamide], the MBC is 110 µM (≈ 31.9 µg/mL) in [1], over 883 µM in test [7], 110 µM (≈ 31.9 µg/mL) in [8] and 110 µM (≈ 31.9 µg/mL) in test [11]. Moreover, the minimum inhibitory concentration (MIC) in [2] is 883 µM (≈ 256 µg/mL); in test [4], 883 µM (≈ 256 µg/mL); in test [5], 55.2 µM (≈ 16 µg/mL); in test [6], 110 µM (≈ 31.9 µg/mL); in [9], 883 µM (≈ 256 µg/mL); in test [10] it was 55.2 µM (≈ 16 µg/mL). Moreover, the values for the IC50 in [3] and in test [12] were 22.1 ± 1.5 µM and 17.2 ± 1.5 µM, respectively.

Regarding `C#CCN(C)S(=O)(=O)c1ccc(O)c2ncccc12` [3c, 8-Hydroxy-N-methyl-N-(prop-2-yn-1-yl)quinoline-5-sulfonamide], the MBC in [1] was 29 µM (≈ 8.01 µg/mL); in test [7], over 464 µM; in test [8] it was 29 µM (≈ 8.01 µg/mL); in test [11], 29 µM (≈ 8.01 µg/mL). In addition, the MIC turned out to be 464 µM (≈ 128 µg/mL) in test [2]; 464 µM (≈ 128 µg/mL) in [4]; 29 µM (≈ 8.01 µg/mL) in test [5]; 29 µM (≈ 8.01 µg/mL) in test [6]; 464 µM (≈ 128 µg/mL) in test [9]; 29 µM (≈ 8.01 µg/mL) in test [10]. The IC50 came out at 9.8 ± 0.6 µM in test [3] and 13.9 ± 0.6 µM in test [12].

As to `C#CCOc1ccc(NS(=O)(=O)c2ccc(O)c3ncccc23)cc1` [3d, 8-Hydroxy-N-[4-(prop-2-yn-1-yloxy)phenyl]quinoline-5-sulfonamide], the minimal bactericidal concentration (MBC) in test [1] came out at 90.4 µM (≈ 32 µg/mL); in [7], 362 µM (≈ 128 µg/mL); in [8], 45.2 µM (≈ 16 µg/mL); in test [11], 45.2 µM (≈ 16 µg/mL). Moreover, the MIC in test [2] came out at 362 µM (≈ 128 µg/mL); in test [4], 362 µM (≈ 128 µg/mL); in test [5], 45.2 µM (≈ 16 µg/mL); in [6], 90.4 µM (≈ 32 µg/mL); in [9], 362 µM (≈ 128 µg/mL); in test [10], 45.2 µM (≈ 16 µg/mL). The figures for the half-inhibitory concentration (IC50) in test [3] and in test [12] were 10.4 ± 0.5 µM and 12.9 ± 1.1 µM, respectively.

On to `C#CCOc1cccc(NS(=O)(=O)c2ccc(O)c3ncccc23)c1` [3e, 8-Hydroxy-N-[3-(prop-2-yn-1-yloxy)phenyl]quinoline-5-sulfonamide], for which the MBC in test [1] was 90.4 µM (≈ 32 µg/mL); in [7], 362 µM (≈ 128 µg/mL); in test [8] it was 45.2 µM (≈ 16 µg/mL); in [11], 90.4 µM (≈ 32 µg/mL). The minimum inhibitory concentration (MIC) is 362 µM (≈ 128 µg/mL) in [2]; 362 µM (≈ 128 µg/mL) in test [4]; 45.2 µM (≈ 16 µg/mL) in test [5]; 90.4 µM (≈ 32 µg/mL) in [6]; 362 µM (≈ 128 µg/mL) in test [9]; 45.2 µM (≈ 16 µg/mL) in [10]. Also, the values for the half-maximal inhibitory concentration (IC50) in test [3] and in test [12] were 8.6 ± 0.9 µM and 11.5 ± 0.7 µM, respectively.

`C#CCOc1ccccc1NS(=O)(=O)c1ccc(O)c2ncccc12` [3f, 8-Hydroxy-N-[2-(prop-2-yn-1-yloxy)phenyl]quinoline-5-sulfonamide]: the MBC in test [1] was determined as 90.4 µM (≈ 32 µg/mL); in test [7], 362 µM (≈ 128 µg/mL); in test [8], 45.2 µM (≈ 16 µg/mL); in test [11], 90.4 µM (≈ 32 µg/mL). In addition, the MIC in test [2] is 362 µM (≈ 128 µg/mL); in test [4], 362 µM (≈ 128 µg/mL); in test [5], 45.2 µM (≈ 16 µg/mL); in [6], 90.4 µM (≈ 32 µg/mL); in [9], 362 µM (≈ 128 µg/mL); in [10], 45.2 µM (≈ 16 µg/mL). Also, the values for the IC50 in [3] and in test [12] were 29.6 ± 2.6 µM and 19.1 ± 0.8 µM, respectively.
